# Results: patent publication EP0118120A2, “1,4-Dihydropyridine compound” (priority 1983, dated 1984)
# How the values were obtained:
# [1] = test system: liver disorder induced by carbon tetrachloride; assay: Effect on liver disorder induced by carbon tetrachloride in rats, serum GOT, GPT, AlP, bilirubin (Example 26); type: in vivo, SLC-Wistar male rats; details: rats 9 weeks old
# Procedure: (§1) Effect of the compounds according to the present invention on liver disorder induced by carbon tetrachloride
# (§2) The effects of the sample compounds to be tested on hepatic disorder were evaluated by determining the levels of GOT, GPT, AlP, and bilirubin, which are known as an indicator of hepatic disorder, in serum, after administering carbon tetrachloride and the sample compounds to SLC-Wistar male rats (9 weeks old and body weight of 210 to 250 g in Tables 1, 3, and 4, and 10 weeks old and body weight of 230 to 260 g in Table 2) as follows.
# (§3) Five rats were used in each test group. The sample compound (i.e., each compound listed below) was suspended at a concentration of 40 mg/ml in a 0.1% aqueous solution of Tween-80 (i.e., nonionic surfactant available from Atlas Powder Co., Ltd.). The resultant suspension was orally administered at a dose of 200 mg/kg each at 25 hours and 1 hour before the administration of carbon tetrachloride, except for the control group. For the control group to which only carbon tetrachloride was administered in the evaluation test, a 0.1% aqueous Tween-80 was orally administered at a dose of 5 ml/kg in the same manner.
# (§4) Carbon tetrachloride was intraperiotoneally administered as a 10% olive oil solution at a dose of 5 ml/kg (0.5 ml/kg in terms of CC14) one hour after the final administration of the sample compound. For the control (normal) group, olive oil was intraperitoneally administered in the same manner at a dose of 5 ml/kg.
# (§5) Blood samples were collected from the carotid artery under pentobarbital anesthesia, 24 hours after the administration of carbon tetrachloride. The rats were fasted for 18 to 22 hours before collecting the blood samples.
# (§6) The determination of GOT and GPT in serum was carried out according to a UV method, the determination of AlP was carried cut according to Bessy-Lowry method, and the determination of bilirubin was carried out according to a diazo method.
# [2] = Acute toxicity, oral LD50 in rats (Example 29); type: in vivo; details: rat, in vivo, male rats 5 weeks old, 100 to 125 g, observed for one week
# Text: (§7) Acute toxicity of the compounds according to the present invention
# [3] = test system: liver disorder induced by carbon tetrachloride; assay: Effect on liver disorder induced by carbon tetrachloride in rats, repeat with 8 weeks old rats (Example 27); type: in vivo, SLC-Wistar male rats; details: Table 5, serum 24 hours after CCl4, 200 mg/kg orally x2, rats 8 weeks old; for GOT: 170 to 210 g, CCl4 only 27875 ± 3628, normal 78 ± 3; for Bilirubin: CCl4 only 0.55 ± 0.16, normal 0.10 ± 0.00; for AlP: CCl4 only 41.3 ± 2.5, normal 25.7 ± 0.4; for GPT: CCl4 only 12984 ± 1465, normal 30 ± 3
# Procedure: as §2, §3, §4, §5, §6, §1
# The evaluation tests of Example 26 were repeated except that SLC-Wistar male rats (8 weeks old and body weight of 170 to 210 g) were used.
# SLC-Wistar male rats = assay: Acute toxicity, oral LD50 in rats (Example 29); type: in vivo; details: male rats 5 weeks old, 100 to 125 g, observed for one week, 10080 min
# Text: as §7
# [4] = Acute toxicity, oral LD50 in rats (Example 28); details: rat, in vivo, male rats 5 weeks old, 130 to 150 g, observed for one week
# Text: as §7
# [5] = Table 3, serum 24 hours after CCl4, 200 mg/kg orally x2, CCl4 only 0.38 ± 0.06, normal 0.22 ± 0.04
# [6] = Table 3, serum 24 hours after CCl4, 200 mg/kg orally x2, CCl4 only 34.4 ± 2.6, normal 27.0 ± 0.5
# [7] = Table 3, serum 24 hours after CCl4, 200 mg/kg orally x2, CCl4 only 9188 ± 1815, normal 30 ± 2
# [8] = Table 3, serum 24 hours after CCl4, 200 mg/kg orally x2, CCl4 only 13189 ± 2205, normal 81 ± 3
# [9] = Table 4, serum 24 hours after CCl4, 200 mg/kg orally x2, CCl4 only 0.38 ± 0.04, normal 0.10 ± 0.00
# [10] = Table 4, serum 24 hours after CCl4, 200 mg/kg orally x2, CCl4 only 35.0 ± 2.0, normal 24.4 ± 0.7
# [11] = Table 4, serum 24 hours after CCl4, 200 mg/kg orally x2, CCl4 only 10523 ± 2313, normal 31 ± 3
# [12] = Table 4, serum 24 hours after CCl4, 200 mg/kg orally x2, CCl4 only 17704 ± 4140, normal 76 ± 4
molecule,measurement,setting,value
"CC(=O)C1=C(C)NC(C)=C(C(C)=O)C1C1=C(C)OC(C)CO1 (centres unmarked) [Sample Compound O, 3,5-diacetyl-2,6-dimethyl-4-2-(3,5-dimethyl-5,6-dihydro-p-dioxinyl) -1,4-dihydro pyridine]",Bilirubin,[1]; [5],0.26 ± 0.02 mg/dL
same,AlP,[1]; [6],37.2 ± 1.6 K-AU.
same,GPT,[1]; [7],410 ± 64 K.U.
same,GOT,[1]; [8],565 ± 98 K.U.
same,LD50 at 168 h,[2],> 2000 mg/kg
"COCC1=C(C2C(C(C)=O)=C(C)NC(C)=C2C(C)=O)OCCO1 [Sample Compound V, 3,5-diacetyl-4-2-(3-methoxy-methvl-5,6-dihydro-p-dioxinyl) -2,6-dimethyl-l,4-dihydropyridine]",GOT,[3],2036 ± 677 K.U.
same,Bilirubin,[3],0.15 ± 0.03 mg/dL
same,AlP,[3],35.6 ± 1.4 K-AU.
same,GPT,[3],1251 ± 414 K.U.
same,LD50 at 168 h,[2],> 2000 mg/kg
"COCOC(=O)C1=C(C)NC(C)=C(C(=O)OCOC)C1C1=COCCO1 [Sample Compound F, bis(methoxymethyl) 4-[2-(5,6-dihydro-p-dioxinyl)]-2,6-dimethyl-1,4-dihydrcpyridine-3,5-dicarboxylate]",Bilirubin,[1]; [5],0.22 ± 0.05 mg/dL
same,AlP,[1]; [6],26.4 ± 1.0 K-AU.
same,GPT,[1]; [7],274 ± 99 K.U.
same,GOT,[1]; [8],432 ± 107 K.U.
same,LD50 at 168 h,[2],> 2000 mg/kg
"3,5-dicyano-4-[2-(5,6-dihydro-p--dioxinyl)]-2,6-dimethyl-1,4-dihvdropyridine [Sample Compound A]",GOT,"[1]; Table 1, serum 24 hours after CCl4 0.5 ml/kg i.p., compound 200 mg/kg orally 25 hours and 1 hour before CCl4, CCl4 only 17327 ± 2336, normal 76 ± 1",3874 ± 792 K.U.
same,Bilirubin,"[1]; Table 1, serum 24 hours after CCl4, 200 mg/kg orally x2, CCl4 only 0.62 ± 0.30, normal 0.10 ± 0.00",0.24 ± 0.02 mg/dL
same,AlP,"[1]; Table 1, serum 24 hours after CCl4, 200 mg/kg orally x2, CCl4 only 35.5 ± 2.5, normal 23.6 ± 0.4",31.4 ± 0.9 K-AU.
same,GPT,"[1]; Table 1, serum 24 hours after CCl4, 200 mg/kg orally x2, CCl4 only 10496 ± 1221, normal 31 ± 2",2380 ± 472 K.U.
same,LD50,SLC-Wistar male rats,more than 1000 mg/kg
"C#CCOC(=O)C1=C(C)NC(C)=C(C(=O)OCC#C)C1C1=COCCO1 [Sample Compound I, dipropargyl 4-[2-(5,6-dihydro-p-dioxinyl)]-2,6-dimethyl-l,4-dihydropyridine-3,5-dicarboxylate]",Bilirubin,[1]; [9],0.22 ± 0.02 mg/dL
same,AlP,[1]; [10],27.6 ± 1.8 K-AU.
same,GPT,[1]; [11],2110 ± 228 K.U.
same,GOT,[1]; [12],2925 ± 380 K.U.
same,LD50 at 168 h,[4],> 2000 mg/kg
"COCN1C(C)=C(C(C)=O)C(C2=COCCO2)C(C(C)=O)=C1C [Sample Compound R, 3,5-diacetyl-4-[2-(5,6-dihydro-p-dioxinyl)]-1-methoxymethyl-2,6-dimethyl-1,4-dihydropyridine]",GOT,[3],425 ± 124 K.U.
same,Bilirubin,[3],0.16 ± 0.02 mg/dL
same,AlP,[3],31.4 ± 1.6 K-AU.
same,GPT,[3],260 ± 98 K.U.
same,LD50 at 168 h,[2],> 1500 mg/kg
"C=CCOC(=O)C1=C(C)NC(C)=C(C(=O)OCC=C)C1C1=COCCO1 [Sample Compound H, diallyl 4-[2-(5,6-dihydro-p-dioxinyl)]-2,6-dimethyl-l,4-dihydropyridine-3,5-dicarboxylate]",Bilirubin,[1]; [9],0.22 ± 0.04 mg/dL
same,AlP,[1]; [10],29.5 ± 2.4 K-AU.
same,GPT,[1]; [11],1453 ± 699 K.U.
same,GOT,[1]; [12],1920 ± 881 K.U.
same,LD50 at 168 h,[4],> 1000 mg/kg
